Source: patent publication US20050272636A1, “Treatment and diagnosis of a reproductive disorder by measuring or inhibiting interferon-gamma” (Adelaide Research & Innovation Pty Ltd., priority 2002, published 2005)

Legend:
[1] = tested on: human cervical epithelial cells; experiment: Effect of IFN-γ and TGFβ on GM-CSF synthesis in human cervical epithelial cells (Example 4); format: cell-based; conditions: 0.5, 5.0 or 50 ng/ml TGFβ1 + 5.0 ng/ml IFN-γ; dose-responsive; 12 h
Experimental: Human cervical epithelial cells were cultured using a modification of the technique described by Rheinwald et al., Cell 1975 3: 33143 (1975). Cervical biopsies were obtained from consenting women undergoing hysterectomy for non-malignant gynaecological indications. All the women were pre-menopausal, but no distinction was made regarding the stage of their menstrual cycle at the time of surgery. The cervical biopsies were placed in ice-cold Hank's balanced salt solution for transport to the laboratory, washed twice in antibiotic-containing medium, and incubated overnight at 4° C. in Dulbecco's modified Eagle's medium (DMEM) containing 5 U dispase (Boehringer Mannheim). Large sheets of keratinocytes were mechanically stripped from the biopsy using sterile forceps after a subsequent 1 h incubation at room temperature. Disaggregation into single cells was facilitated by incubation in DMEM/0.25% trypsin/0.05% collagenase for 30 minutes at 37° C., and repeated aspiration using a needle and syringe. […]
Supernatant was collected 12 hours later and assayed for GM-CSF activity using a commercial human GM-CSF specific ELISA (R & D Systems) according to the manufacturer's instructions. The GM-CSF content of post-treatment supernatants were normalised to the GM-CSF content of corresponding 12 h (baseline) supernatants and expressed as a percentage of control values.

mice = experiment: Effect of IFN-γ treatment on pregnancy outcome in mice (Example 8); format: in vivo; conditions: implantation rate, viable versus resorbing fetuses, fetal and placental weight on day 18
Experimental: Mice are housed under specific pathogen-free conditions at the University of Adelaide Medical School Animal House on a 12:12 light-dark cycle, and administered food and water ad libitum. Adult Balb/c×C57B1/6 F1 females (7-10 weeks old) are synchronised into estrus by caging in close proximity to males. Estrus is identified on the basis of presence of cornified epithelial cells in vaginal smears prepared at 0900-1000 h daily and examined by phase contrast microscopy. On the day of estrus (day 0) females are caged with proven fertile Balb/k males for natural mating. The day of sighting a vaginal plug is nominated day 1 of pregnancy.
Mice are randomly allocated to one of four groups and treated as follows: Group 1 (100 ng IFN-γ) mice receive three intraperitoneal injections of […] recombinant mouse IFN-γ (rmIFN-γ, R&D Systems) in 200 μl PBS containing 1% bovine serum albumin (PBS-BSA) at 1700 h on day 0, at 1000 h on day 1 and 1700hon day 1.
Group 2 (250 ng IFN-γ) receive three injections of 250 ng rmIFN-γ according to the same time schedule.
Group 3 (control) receive three injections of PBS-BSA instead of IFN-γ according to the same time schedule.
Group 4 (comparison) Mice are mated but otherwise remain untreated.
Twenty mice per group are used to ensure statistical significance in treatment effects.
Alternatively, a transcervical delivery route for IFN-γ is used. Treatments are delivered directly into the uterine lumen with the aid of a tom-cat catheter (Sovereign, St Louis Mo.). In mated animals this requires removal of vaginal plugs using forceps to allow transcervical access. Mice are randomly allocated to one of four groups and treated as follows: the first group (100 ng IFN-γ) mice receive three transcervical injections of […] recombinant mouse IFN-γ (rmIFN-γ, R&D Systems) in 200 μl PBS containing 1% bovine serum albumin (PBS-BSA) at 1700 h on day 0, at 1000 h on day 1 and 1700 h on day 1. The second group (25 ng IFN-γ) receive three injections of 25 ng rmIFN-γ according to the same time schedule. The third group (control) receive three injections of PBS-BSA instead of IFN-γ according to the same time schedule. For comparison, a fourth group of mice are mated but otherwise would remain untreated. Twenty mice per group are used to ensure statistical significance in treatment effects.
Pregnant females are sacrificed by cervical dislocation at 1000 h -1200 h on day 18 of gestation. The intact uterus of each female is removed and total, viable and resorbing implantation sites counted. Each viable fetus is dissected from the amniotic sac and umbilical cord, and fetuses and placentae weighed. Placental tissues are fixed in paraformaldehyde and processed for histological staining of paraffin sections, using Masson's trichrome stain.

rhTGFβ1: recombinant human transforming growth factor β1 (R&D Systems)
effect of TGFβ on the inhibitory effect of IFN-γ on GM-CSF synthesis [1]: counteract the inhibitory effect | effect on the detrimental effects of IFN-γ on pregnancy outcome (mice): reverses the detrimental effects of IFN-γ
